Test results from US11247982B2, “NMDA receptor modulators, compositions comprising same and use of these compounds in the treatment of diseases involving the central nervous system” (ADPUERIVITAM, priority 2017, dated 2022).

Test system: NMDA receptors
Experiment: Whole-cell patch-clamp of NMDA currents in cultured rat embryonic hippocampal neurons
Format: cell-based
Details: for A. NMDA current: Summary: 10 μM test compound; for C. Channel closing kinetics: T run-down (ms) / C. Channel closing kinetics: Tau (s) / D. Desensitization: Slope (pA/s) / C. Channel closing kinetics: Max slope (pA/s) / B. Channel opening kinetics: Min slope (pA/s) / C. Channel closing kinetics: Run down slope (pA/s) / B. Channel opening kinetics: Run-up slope (pA/s) / B. Channel opening kinetics: T run-up (ms) / B. Channel opening kinetics: Time to peak (ms): 10 μM test compound vs NMDA alone; for C. Channel closing kinetics: T run-down (ms): closing time between 90% and 10% of max current; for C. Channel closing kinetics: T run-down (ms) / C. Channel closing kinetics: Tau (s) / D. Desensitization: Slope (pA/s) / C. Channel closing kinetics: Max slope (pA/s) / B. Channel opening kinetics: Min slope (pA/s) / C. Channel closing kinetics: Run down slope (pA/s) / B. Channel opening kinetics: Run-up slope (pA/s) / B. Channel opening kinetics: T run-up (ms) / B. Channel opening kinetics: Time to peak (ms) / A. NMDA current: Width 50 (ms) / A. NMDA current: Peak area (pA · s): (n) = cells; for C. Channel closing kinetics: Tau (s): closing time of 50% of the channels (half-life); for D. Desensitization: Slope (pA/s): desensitization speed during the application of NMDA; for C. Channel closing kinetics: Max slope (pA/s): greatest closing speed; for B. Channel opening kinetics: Min slope (pA/s): greatest opening speed; for C. Channel closing kinetics: Run down slope (pA/s): mean closing speed during T run-down; for B. Channel opening kinetics: Run-up slope (pA/s): mean opening speed during T run-up; for B. Channel opening kinetics: T run-up (ms): opening time between 10% and 90% of max current; for B. Channel opening kinetics: Time to peak (ms): time to reach the maximum current; for A. NMDA current: Width 50 (ms) / A. NMDA current: Peak area (pA · s) / A. NMDA current: Height (pA): 10 μM test compound with 100 μM NMDA + 5 μM L-glycine vs NMDA alone; for A. NMDA current: Width 50 (ms): duration of current above 50% of Height; for A. NMDA current: Peak area (pA · s): total current integrated over time; for A. NMDA current: Height (pA): −60 mV, maximum current, (n) = number of cells; for A. NMDA current: Washable / B. Channel opening kinetics: Washable / C. Channel closing kinetics: Washable / D. Desensitization: Washable: persistence of effect, NMDA wash vs NMDA + test compound
Method: Female Wistar rats in gestation with 17-day-old embryos (E17) were obtained from Janvier Labs. On the day of receipt of the animals, the rat is sacrificed and the embryos are dissected under sterile conditions to remove their brain, which is then micro-dissected in GBSS (Gey's balanced salt solution) medium to obtain the hippocampus from the two hemispheres, while discarding the meninges. The tissues harvested from at least five embryos are placed in 2 ml of DMEM medium (registered trademark) (Dulbecco's modified Eagle's medium—from Life Technologies) with 2% of fetal calf serum, 2 mM of glutamine, 0.1 mg/mL of penicillin-streptomycin antibiotic mixture (Life Technologies) and subjected to mechanical dissociation of the cells by passing through round-ended glass pipettes with an inside diameter decreasing from 0.5 to 0.2 mm. The cells are counted and 100 μl of suspension containing 25×10^3 cells are placed on a glass slide coated with polylysine (poly-D-lysine hydrobromide from 75 to 150 kDa, from Sigma) of Ø 12 mm, in 12-well culture plates and incubated for 2 hours at 37° C. under an atmosphere containing 5% of CO2 to allow cell adhesion. A volume of 2 mL of culture medium is added gently: Neurobasal (registered trademark) with 1/50 (v:v) serum-free supplement B-27® (Life Technologies), 2 mM of glutamine, 0.1 mg/ml of penicillin-streptomycin antibiotic mixture (from Life Technologies), and incubation is again performed under the same conditions. Half of the medium is replaced twice a week for maintenance. The neuronal cells will be able to differentiate over a period of 12 to 30 days. The cultures are monitored by phase-contrast microscopy: the extension of the neurites and of the synaptic connections is observed for the neurons, which represent the majority of the cells, while a few astrocytes are also present.
The electrophysiology post consists of an Olympus IMT-2 model inverted phase-contrast microscope placed on a TMC antivibration table in a Faraday cage. The installation also comprises an SF-77B model Warner multichannel perfusion system, a Burleigh PCS-5000 model 3D-micromanipulator system holding the microelectrode probe, a Warner PC-505 model patch-clamp amplifier and a PowerLab 8/35 model 8-channel analog-digital interface from ADInstruments. The glass microelectrode is manufactured with thin-walled borosilicate capillary tubes (1.5 OD×1.17 ID×100 L mm, from Harvard Apparatus) and prepared with the Narishige PC10 model vertical electrode puller to obtain an electrical resistance of about 5 MOhm. The electrode of the pipette is filled with the intracellular medium composed of (in mM): 100 CsF, 40 CsCl, 1.2 CaCl2, 20 HEPES, 10 EGTA, pH=7.4 (adjusted with CsOH).
The culture on its slide is placed in a 60 mm Petri dish with 2 ml of extracellular medium composed of (in mM): 140 NaCl, 5 KCl, 1.2 CaCl2, 1.5 MgCl2, 12 HEPES, 12 Na-HEPES, 33 glucose, pH=7.4.
The neuron selected is patched in the whole cell configuration. The maintenance potential is set at −60 mV.
The assembled glass microtubes of square cross section of the perfusion system each provide a stable stream of different composition. The “TTX” default medium corresponds to the extracellular medium to which is added 1 μM tetrodotoxin. The “NMDA” application medium is “TTX” supplemented with 100 μM of NMDA (N-methyl-D-aspartate) as agonist, and 5 μM of L-glycine as co-agonist. The “NMDA+ test compound” medium corresponds to the “NMDA” supplemented with 10 μM of the test compound. The “NMDA wash” is identical to the “NMDA” medium.
As a general rule, three applications of each test compound are performed on the patched cell, for 2 seconds at intervals of 3 minutes (to allow inversion of desensitization). The sequence of the applications is: 1) “NMDA”, 2) “NMDA+ test compound”, 3) “NMDA wash”. The “TTX” medium is applied by default, before and after each application of test compound. […]

Structure (SMILES) | antagonistic effect on the maximum current amplitude (concentration of less than 1 μM) | A. NMDA current: Summary | C. Channel closing kinetics: T run-down (ms) | C. Channel closing kinetics: Tau (s) | D. Desensitization: Slope (pA/s) | C. Channel closing kinetics: Max slope (pA/s) | B. Channel opening kinetics: Min slope (pA/s) | C. Channel closing kinetics: Run down slope (pA/s) | B. Channel opening kinetics: Run-up slope (pA/s) | B. Channel opening kinetics: T run-up (ms) | B. Channel opening kinetics: Time to peak (ms) | A. NMDA current: Width 50 (ms) | A. NMDA current: Peak area (pA · s) | A. NMDA current: Height (pA) | A. NMDA current: Washable | B. Channel opening kinetics: Washable | C. Channel closing kinetics: Washable | D. Desensitization: Washable
Cc1ccc2[nH]c(=O)c(C3=NN(C(=O)CCC(=O)O)C(c4ccc(Br)cc4)C3)c(-c3ccccc3)c2c1 (stereo not shown) [DQP1105, reference compound] | maintained at the same level |  |  |  |  |  |  |  |  |  |  |  |  |  |  |  |  | 
O=C(C[C@]1(O)C(=O)N(CCc2c[nH]c3ccccc23)c2ccccc21)c1cccc(Cl)c1 [Molecule 1] |  | Antagonist (4+) | 12 ± 6% (7) | 29 ± 13% (6) | −59 ± 8% (7) | −27 ± 10% (7) | −35 ± 12% (7) | −48 ± 8% (7) | −45 ± 7% (7) | 3 ± 3% (7) | 1 ± 4% (7) | 0 ± 9% (7) | −37 ± 12% (7) | −43 ± 8% (7) | No | No | No | No
O=C(C[C@]1(O)C(=O)N(CCc2c[nH]c3ccccc23)c2ccccc21)c1ccccc1Cl [Molecule 2] |  | Antagonist (6+) | −15 ± 5% (7) | 44 ± 28% (7) | −70 ± 17% (7) | −28 ± 8% (7) | −25 ± 9% (7) | −63 ± 13% (7) | −61 ± 10% (7) | −16 ± 13% (7) | −7 ± 4% (7) | −49 ± 14% (7) | −65 ± 13% (7) | −66 ± 10% (7) | Yes | (Yes/No) | (Yes/No) | (Yes)
O=C(C[C@]1(O)C(=O)N(CCc2c[nH]c3ccccc23)c2ccccc21)c1ccccc1F [Molecule 3] |  | Antagonist (2+) | 2 ± 4% (13) | 17 ± 5 (13) % | −43 ± 8% (13) | −22 ± 4% (13) | −22 ± 4 (13) % | −30 ± 8% (13) | −23 ± 5% (13) | −8 ± 6% (13) | −5 ± 3% (13) | −10 ± 7% (13) | −16 ± 8% (13) | −24 ± 7% (13) | (No/Yes) | (Yes/No) | No | No
